According to patent publication US20060228419A1, “Solvent-free process for preparation of hydrophilic dispersions of nanoparticles of inclusion complexes” (SoluBest Ltd., priority 2005, published 2006):

Biological target: T1, hyaluronidase (Bos taurus, UniProt Q2YDK3)
T1 construct: purchased Sigma H 3506; host or cells: bovine testes (natural source)
T1 sequence (Q2YDK3 36-553): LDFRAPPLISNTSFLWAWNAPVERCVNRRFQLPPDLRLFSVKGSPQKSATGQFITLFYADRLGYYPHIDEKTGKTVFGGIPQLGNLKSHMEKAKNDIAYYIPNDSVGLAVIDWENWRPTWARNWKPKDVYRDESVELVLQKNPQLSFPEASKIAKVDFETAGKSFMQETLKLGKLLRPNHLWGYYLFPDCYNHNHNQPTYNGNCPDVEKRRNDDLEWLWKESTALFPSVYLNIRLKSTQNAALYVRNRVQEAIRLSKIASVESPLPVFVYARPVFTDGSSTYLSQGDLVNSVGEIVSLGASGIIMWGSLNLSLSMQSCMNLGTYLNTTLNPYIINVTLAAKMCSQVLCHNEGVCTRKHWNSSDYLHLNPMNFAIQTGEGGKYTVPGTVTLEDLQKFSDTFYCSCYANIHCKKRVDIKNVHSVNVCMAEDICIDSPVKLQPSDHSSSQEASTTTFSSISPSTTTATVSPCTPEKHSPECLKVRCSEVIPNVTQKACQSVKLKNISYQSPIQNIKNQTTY
Experiment: Stability in the presence of hyaluronidase (decrease of viscosity)
Format: in vitro ADME, bovine
Protocol: The stability of Solu-NaHA in the presence of the enzyme specific for hyaluronic acid, hyaluronidase (Sigma, H 3506, Hyaluronidase lyophilized (EC 3.2.1.35) Type I-S, from bovine testes, 608 U/mg solid) was measured by the decrease of the viscosity in time in comparison to blank. The degree of stability (protection against action of hyaluronidase) is defined as a decrease in the viscosity of the NaHA solution upon addition of the enzyme (dose of enzyme—10 U/ml). The control used was 0.1% solution of NaHA without the wrapping polymer (blank). Samples were maintained on a water bath at temperature 37° C. during 5 hrs. Sample made by Visco Star Plus. The decrease in viscosity was estimated in percentage to its initial value. The results in FIG. 5 show the stability of Solu-NaHA prepared with polymer A (NaHA with HPS) or with Polymer B (NaHA with B-790) against the action of hyaluronidase, established as 84-100% vs control 58-63%.
The stability of NaHA in the Solu-NaHA in the presence of hyaluronidase was measured by the decrease of the viscosity over time in comparison to blank. The stability of Solu-NaHA against the action of hyaluronidase was 70-90% vs 40-45% in blank (0.5% solution of NaHA).
The degree of stability of NaHA was measured as described in Example 7 above. The control used was 0.5% solution of NaHA without any polymer (blank). Samples were maintained on a water bath at temperature 37° C. during 5 hrs. Measurement of viscosity was made by Visco Star Plus. Decrease in viscosity is estimated in percentage relative to its initial value. It is established, that protection of Solu-NaHA with polymer A (HPS) against action of hyaluronidase gives a viscosity of 67-70% vs the control protection of 20-27%.

| viscosity under enzyme activity, percentage relative to initial value (0.5% NaHA, 37° C., 5 hrs) | stability against the action of hyaluronidase (0.5% NaHA, viscosity over time versus blank (FIG. 6)) | stability against the action of hyaluronidase (0.1% NaHA, enzyme 10 U/ml, 37° C., up to 5 hrs, viscosity in percentage to initial value) | Substance |
| --- | --- | --- | --- |
| 20-27% | 40-45% |  | sodium hyaluronate [0.5% solution of NaHA] |
|  |  | 58-63% | sodium hyaluronate [0.1% solution of NaHA] |
